Test results from patent publication US8906852B2 (MethylGene Inc., priority 2010, dated 2014).

Each compound was assayed against T1, VEGFR/KDR (Homo sapiens, UniProt P35968) (assay: VEGFR/KDR kinase inhibition, DELFIA assay). Conditions: ATP 0.6 uM (2x Km), enzyme 5 nM.
T1 construct: made in house; host or cells: Sf9 cells (Spodoptera frugiperda), baculovirus
T1 sequence (P35968 806-1356): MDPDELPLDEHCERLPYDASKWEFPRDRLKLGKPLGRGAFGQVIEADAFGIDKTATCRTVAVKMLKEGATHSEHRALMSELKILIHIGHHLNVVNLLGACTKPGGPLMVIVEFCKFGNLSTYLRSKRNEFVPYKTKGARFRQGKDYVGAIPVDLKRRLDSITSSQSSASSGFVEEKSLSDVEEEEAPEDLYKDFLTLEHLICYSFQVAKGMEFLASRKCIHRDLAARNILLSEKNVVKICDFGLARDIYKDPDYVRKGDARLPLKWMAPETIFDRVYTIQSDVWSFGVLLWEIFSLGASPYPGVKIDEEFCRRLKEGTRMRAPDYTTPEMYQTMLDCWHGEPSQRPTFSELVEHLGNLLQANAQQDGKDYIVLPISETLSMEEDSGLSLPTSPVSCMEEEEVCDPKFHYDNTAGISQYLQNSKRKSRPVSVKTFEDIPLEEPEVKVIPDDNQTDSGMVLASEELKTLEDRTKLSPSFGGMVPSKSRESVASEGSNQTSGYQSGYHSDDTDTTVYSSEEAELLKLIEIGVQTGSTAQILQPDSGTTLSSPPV
Assay type: biochemical
Outline: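 DELFIA time-resolved fluorescence readout using Europium-tagged anti-phosphotyrosine antibody after EDTA stop. Kinase reaction on plate-bound poly(Glu4,Tyr) ran 10-30 min at 30° C with 5 nM enzyme and 0.6 uM ATP (2× Km), following 4 min on-ice pre-incubation with compound; IC50 over a concentration range.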
`CS(=O)(=O)NC1CCN(Cc2ccc(-c3cc4nccc(Oc5ccc(NC(=O)NC6CC6)cc5F)c4s3)nc2)CC1` [Compound 350] was tested, and the IC50 was less than 50 nM.
In the case of `CN(CCO)C(=O)C1CCN(Cc2ccc(-c3cc4nccc(Oc5ccc(NC(=O)NC6CC6)cc5F)c4s3)nc2)CC1` [Compound 484], the IC50 is reported as less than 50 nM.
`CN(C)CCCn1cc(-c2cc3nccc(Oc4ccc(NC(=O)NC5CC5)cc4F)c3s2)nn1` [Compound 384] was tested, and the IC50 was less than 50 nM.
Compound `O=C(Nc1ccc(Oc2ccnc3cc(-c4ccc(CCN5CCCC5=O)cn4)sc23)c(F)c1)NC1CC1` [Compound 295, 1-cyclopropyl-3-(3-fluoro-4-(2-(5-(2-(2-oxopyrrolidin-1-yl)ethyl)pyridin-2-yl)thieno[3,2-b]pyridin-7-yloxy)phenyl)urea] has an IC50 of less than 50 nM.
`O=C(Nc1ccc(Oc2ccnc3cc(-c4ccc(CN5CCN(CC(F)(F)F)CC5)cn4)sc23)c(F)c1)NC1CC1` [Compound 84, 1-cyclopropyl-3-(3-fluoro-4-(2-(5-((4-(2,2,2-trifluoroethyl)piperazin-1-yl)methyl)-pyridin-2-yl)thieno[3,2-b]pyridin-7-yloxy)phenyl)urea] gave an IC50 of less than 50 nM.
`O=C(Nc1ccc(Oc2ccnc3cc(-c4ccc(CN5CCC(F)(F)C5)cn4)sc23)c(F)c1)NC1CC1` [Compound 315, 1-cyclopropyl-3-(4-(2-(5-((3,3-difluoropyrrolidin-1-yl)methyl)pyridin-2-yl)thieno[3,2-b]pyridin-7-yloxy)-3-fluorophenyl)urea] was tested, and the IC50 was less than 50 nM.
`COCCN(Cc1ccc(-c2cc3nccc(Oc4ccc(NC(=O)CC5CC5)cc4F)c3s2)nc1)C(C)=O` [Compound 42, 2-cyclopropyl-N-(3-fluoro-4-(2-(5-((N-(2-methoxyethyl)-acetamido)methyl)pyridin-2-yl)thieno[3,2-b]-pyridin-7-yloxy)phenyl)-acetamide] gave an IC50 of 50 to 100 nM.
Work on `CC(CC(=O)O)N1CCN(Cc2ccc(-c3cc4nccc(Oc5ccc(NC(=O)NC6CC6)cc5F)c4s3)nc2)CC1` (stereo not shown) [Compound 516] yielded an IC50 of less than 50 nM.
With `O=C(O)CCCN1CCN(Cc2ccc(-c3cc4nccc(Oc5ccc(NC(=O)NC6CC6)cc5F)c4s3)nc2)CC1` [Compound 519, 4-(4-((6-(7-(4-(3-cyclopropylureido)-2-fluorophenoxy)thieno[3,2-b]pyridin-2-yl)pyridin-3-yl)methyl)piperazin-1-yl)butanoic acid] the IC50 was less than 50 nM.
`O=C(O)CNC(=O)NC1CN(Cc2ccc(-c3cc4nccc(Oc5ccc(NC(=O)NC6CC6)cc5F)c4s3)nc2)C1` [Compound 428] gave an IC50 of less than 50 nM.
With `COC(=O)[C@@H]1CCCN1Cc1ccc(-c2cc3nccc(Oc4ccc(NC(=O)NC5CC5)cc4F)c3s2)nc1` [Compound 476] the IC50 was less than 50 nM.
In the case of `CNC1CCN(C(=O)c2ccc(-c3cc4nccc(Oc5ccc(NC(=O)NC6CC6)cc5F)c4s3)nc2)CC1` [Compound 399], the IC50 is reported as less than 50 nM.
`COCCNCCc1ccc(-c2cc3nccc(Oc4ccc(NC(=O)Nc5cc(C)on5)cc4F)c3s2)nc1` [Compound 183, 1-(3-fluoro-4-(2-(5-(2-(2-methoxyethylamino)ethyl)pyridin-2-yl)thieno[3,2-b]pyridin-7-yloxy)phenyl)-3-(5-methylisoxazol-3-yl)urea] was tested, and the IC50 was less than 50 nM.
`CN1CCC(CN2CCN(Cc3ccc(-c4cc5nccc(Oc6ccc(NC(=O)NC7CC7)cc6F)c5s4)nc3)CC2)CC1` [Compound 54-D, 1-cyclopropyl-3-(3-fluoro-4-(2-(5-((4-((1-methylpiperidin-4-yl)methyl)piperazin-1-yl)methyl)pyridin-2-yl)thieno[3,2-b]pyridin-7-yloxy)phenyl)urea] showed an IC50 of less than 50 nM.
In the case of `CN1CCN(Cc2ccc(-c3cc4nccc(Oc5ccc(NC(=O)NC6CC6)cc5F)c4s3)nc2)C1=O` [Compound 141, 1-cyclopropyl-3-(3-fluoro-4-(2-(5-((3-methyl-2-oxoimidazolidin-1-yl)methyl)pyridin-2-yl)thieno[3,2-b]pyridin-7-yloxy)phenyl)urea], the IC50 is reported as less than 50 nM.
`CNC(=O)CCN1CCN(Cc2ccc(-c3cc4nccc(Oc5ccc(NC(=O)NC6CC6)cc5F)c4s3)nc2)CC1` [Compound 81, 3-(4-((6-(7-(4-(3-cyclopropylureido)-2-fluorophenoxy)thieno[3,2-b]pyridin-2-yl)pyridin-3-yl)methyl)piperazin-1-yl)-N-methylpropanamide] was tested, and the IC50 was less than 50 nM.
`CC(C)(CN1CCN(C(=O)c2ccc(-c3cc4nccc(Oc5ccc(NC(=O)NC6CC6)cc5F)c4s3)nc2)CC1)C(=O)O` [Compound 576] showed an IC50 of less than 50 nM.
`COCCN(Cc1cnc(-c2cc3nccc(Oc4ccc(NC(=O)NC(C)C)cc4F)c3s2)n1C)C(C)=O` [Compound 117-A, N-((2-(7-(2-fluoro-4-(3-isopropylureido)phenoxy)thieno[3,2-b]-pyridin-2-yl)-1-methyl-1H-imidazol-5-yl)methyl)-N-(2-methoxyethyl)acetamide] gave an IC50 of 50 to 100 nM.
`CN(CCC(=O)O)C1CCN(Cc2ccc(-c3cc4nccc(Oc5ccc(NC(=O)NC6CC6)cc5F)c4s3)nc2)CC1` [Compound 424, 3-((1-((6-(7-(4-(3-Cyclopropylureido)-2-fluorophenoxy)thieno[3,2-b]pyridin-2-yl)pyridin-3-yl)methyl)piperidin-4-yl)(methyl)amino)propanoic acid] was tested, and the IC50 was less than 50 nM.
With `O=C(Nc1ccc(Oc2ccnc3cc(C(=O)N4CC[C@@H](O)C4)sc23)c(F)c1)NC1CC1` [Compound 460, (R)-1-cyclopropyl-3-(3-fluoro-4-(2-(3-hydroxypyrrolidine-1-carbonyl)thieno[3,2-b]pyridin-7-yloxy)phenyl)urea] the IC50 was less than 50 nM.
With `O=C(Nc1ccc(Oc2ccnc3cc(-c4ccc(C(=O)N5CCNCC5)cn4)sc23)c(F)c1)NC1CC1` [Compound 550] the IC50 was less than 50 nM.
`CC(C)(C)OC(=O)NC1CCN(C(=O)Cn2cc(-c3cc4nccc(Oc5ccc(NC(=O)NC6CC6)cc5F)c4s3)nn2)C1` (stereo not shown) [Compound 382] was tested, and the IC50 was less than 50 nM.
Compound `O=C(Nc1ccc(Oc2ccnc3cc(-c4ccc(CN5CCOCC5=O)cn4)sc23)c(F)c1)NC1CC1` [Compound 123, 1-cyclopropyl-3-(3-fluoro-4-(2-(5-((3-oxomorpholino)methyl)pyridin-2-yl)thieno[3,2-b]pyridin-7-yloxy)phenyl)urea] has an IC50 of less than 50 nM.
`COCCNCCn1cc(-c2cc3nccc(Oc4ccc(NC(=O)NC5CC5)cc4F)c3s2)cn1` [Compound 247, 1-cyclopropyl-3-(3-fluoro-4-(2-(1-(2-(2-methoxyethylamino)ethyl)-1H-pyrazol-4-yl)thieno[3,2-b]pyridin-7-yloxy)phenyl)urea] gave an IC50 of less than 50 nM.
Work on `CCOC(=O)C1CCN(Cc2ccc(-c3cc4nccc(Oc5ccc(NC(=O)NC6CC6)cc5F)c4s3)nc2)CC1` [Compound 58, ethyl 1-((6-(7-(4-(3-cyclopropylureido)-2-fluorophenoxy)-thieno[3,2-b]pyridin-2-yl)pyridin-3-yl)methyl)piperidine-4-carboxylate] yielded an IC50 of less than 50 nM.
Work on `O=C(Nc1ccc(Oc2ccnc3cc(-c4ccc(CN5CCN(CCOCCO)CC5)cn4)sc23)c(F)c1)NC1CC1` [Compound 327] yielded an IC50 of less than 50 nM.
In the case of `CCNC(=O)N1CCN(Cc2ccc(-c3cc4nccc(Oc5ccc(NC(=O)NC6CC6)cc5F)c4s3)nc2)CC1` [Compound 551], the IC50 is reported as less than 50 nM.
In the case of `CCNC(=O)N(C)C1CCN(C(=O)c2ccc(-c3cc4nccc(Oc5ccc(NC(=O)NC6CC6)cc5F)c4s3)nc2)CC1` [Compound 406], the IC50 is reported as less than 50 nM.
